Measurements from US9610274B2, “Methods for treating bipolar disorder” (priority 2010, dated 2017).

System: rats
Assay: Forced swimming test in rats
Assay type: in vivo
Details: 4 hours post-treatment
Procedure: Male CD-1 mice (16-24 g) and male Wistar rats (90-125 g) were utilized in these experiments. The test compound (10, 15 and 30 mg/kg) was dissolved in physiological saline (0.9%) and administered orally in a volume of 1 mL/100 g body weight.
Mice and rats were placed in glass cylinders of 1000 ml beakers (height 14 cm, diameter 11.5 cm) and 4000 ml beakers (height 24.5 cm, diameter 18.0 cm), respectively, containing water (25 degrees Celsius) up to a height of 9.0 cm for mice and 19.0 cm for rats. […] Immobility was defined as lack of movement, such as floating in the water with little or no movement of hind legs. Duration of immobility was timed with a stopwatch and recorded. In some experiments, mice or rats were allowed to swim for 6 or 10 minutes, respectively, one day prior to the forced swimming experiment.
In the single dose test, mice or rats were given test compound or 0.9% NaCl and placed in glass cylinders 1 hour or 4 hours post-treatment, respectively. In the multiple dose experiments, mice were dosed twice a day for 3 days and given an additional dose on Day 4. In addition, the mice were placed in the glass cylinders containing water at 25 degrees Celsius and allowed to swim for six minutes on Day 3. Statistical evaluation was performed using a computer program (The Pharmacological Calculation System of Tallarida and Murray (#425475-04-7-1992)) based on probit analysis. Statistical significance was determined using Student's t-test at a P value of <0.05.

For NC(=O)OC[C@H](N)Cc1ccccc1 [test compound, O-carbamoyl-(D)-phenylalaninol], the “mean duration of immobility” value (10 mg/kg, control 74 sec, not statistically significant) was 62 s, the “mean duration of immobility” value (15 mg/kg, control 65 sec, not statistically significant) was 39 s and the “mean duration of immobility” value (30 mg/kg, control 38 sec, significant) was 9 s. For the same compound, the ED50 (Rattus norvegicus, single dose PO, read-out: ED50 (reduction of mean immobility time)) was 18.5 mg/kg.
